According to US20140088052A1, “CHALCONE DERIVATIVES AS NRF2 ACTIVATORS” (THE JOHNS HOPKINS UNIVERSITY, priority 2011, published 2014):

What follows are compounds tested on Nrf2 (assay: Expression of Nrf2-regulated genes GCLM and NQO1 by qRT-PCR in Beas-2B cells (screen)). Settings: Homo sapiens, BEAS-2B, 16 h, DMSO = 1.0 (Table 2), read-out: Relative Fold Change GCLM.
Assay type: cell-based, human
Protocol: To investigate the potency of the presently disclosed chalcone derivatives to activate Nrf2, the expression of antioxidant genes, GCLM and NADPH-NQO1, two well characterized transcriptional targets of Nrf2, were measured as surrogate markers. By “marker” is meant any protein or polynucleotide having an alteration in expression level or activity that is associated with a disease, disorder, or condition. It has been previously shown that oxidants or small molecule activators of Nrf2 increase GCLM and NQO1 in cells or tissues of wild-type, but not in Nrf2-deficient mice. Osburn, W. O., et al., Genetic or pharmacologic amplification of Nrf2 signaling inhibits acute inflammatory liver injury in mice. Toxicol. Sci. 2008, 104(1), 218-227. […]
RNA was isolated and gene expression was measured after 16 h.
Total RNA was extracted from cells/tissue using Qiagen RNeasy kit (Qiagen Corporation, Valencia, Calif.) and reverse transcription was performed by using random hexamers and MultiScribe reverse transcriptase according to the manufacturer's recommendations (Applied Biosystems, Foster City, Calif., USA). Quantitative real-time RT-PCR analyses of Nrf2, NQO1, HO1, and GCLM were performed by using Assay-on-Demand primers and probe sets from Applied Biosystems. Assays were performed using the ABI 7000 Taqman system (Applied Biosystems, Foster City, Calif.). β-actin was used for normalization.

**Q.** `COc1ccc(C(=O)/C=C/c2ccc(C(F)(F)F)cc2)cc1` [Compound 4d, (E)-1-(4-methoxyphenyl)-3-(4-(trifluoromethyl)phenyl)prop-2-en-1-one] was tested. Which fold induction at 10 µM did it give?
**A.** 3.5

**Q.** `COc1ccc(C(=O)/C=C/c2ccc(C(F)(F)F)cc2)c(OC)c1` [Compound 4e, (E)-1-(2,4-dimethoxyphenyl)-3-(4-(trifluoromethyl)phenyl)prop-2-en-1-one] was tested. Which fold induction at 10 µM did it give?
**A.** 5

**Q.** How did the fold induction at 10 µM turn out when `COc1ccc(OC)c(C(=O)/C=C/c2ccc(C(F)(F)F)cc2)c1` [Compound 4g] was run?
**A.** 4.1

**Q.** Which fold induction at 10 µM does the source give for `COc1ccc(C(=O)/C=C/c2ccc(C(F)(F)F)cc2)c(OC)c1OC` [Compound 4j] here?
**A.** 4.1

**Q.** `COc1cccc(OC)c1C(=O)/C=C/c1ccccc1[N+](=O)[O-]` [Compound 5f] was tested. Which fold induction at 10 µM did it give?
**A.** 4.1

**Q.** `COc1cc(OC)cc(C(=O)/C=C/c2ccccc2[N+](=O)[O-])c1` [Compound 5i] was tested. Which fold induction at 10 µM did it give?
**A.** 3.4

**Q.** For `C[S+]([O-])CCCCN=C=S` (stereo not drawn) [Sulforaphane, reference compound], which fold induction at 10 µM is on record?
**A.** 2.7

Same assay, conditions: Homo sapiens, BEAS-2B, 16 h, DMSO = 1.0 (Table 2), read-out: Relative Fold Change NQO1

**Q.** For `COc1ccc(C(=O)/C=C/c2ccc(C(F)(F)F)cc2)cc1` [Compound 4d, (E)-1-(4-methoxyphenyl)-3-(4-(trifluoromethyl)phenyl)prop-2-en-1-one], which fold induction at 10 µM is on record?
**A.** 4.6

**Q.** Which fold induction at 10 µM does the source give for `COc1ccc(C(=O)/C=C/c2ccc(C(F)(F)F)cc2)c(OC)c1` [Compound 4e, (E)-1-(2,4-dimethoxyphenyl)-3-(4-(trifluoromethyl)phenyl)prop-2-en-1-one] here?
**A.** 4.8

**Q.** How did the fold induction at 10 µM turn out when `COc1ccc(OC)c(C(=O)/C=C/c2ccc(C(F)(F)F)cc2)c1` [Compound 4g] was run?
**A.** 4

**Q.** Which fold induction at 10 µM does the source give for `COc1ccc(C(=O)/C=C/c2ccc(C(F)(F)F)cc2)c(OC)c1OC` [Compound 4j] here?
**A.** 3.9

**Q.** `COc1cccc(OC)c1C(=O)/C=C/c1ccccc1[N+](=O)[O-]` [Compound 5f] was tested. Which fold induction at 10 µM did it give?
**A.** 3.7

**Q.** How did the fold induction at 10 µM turn out when `COc1cc(OC)cc(C(=O)/C=C/c2ccccc2[N+](=O)[O-])c1` [Compound 5i] was run?
**A.** 4.1

**Q.** How did the fold induction at 10 µM turn out when `C[S+]([O-])CCCCN=C=S` (stereo not drawn) [Sulforaphane, reference compound] was run?
**A.** 3.6

Same assay, conditions: Homo sapiens, BEAS-2B, 16 h, DMSO = 1 (Table 3), read-out: Relative Fold Change GCLM

**Q.** `COc1ccc(C(=O)/C=C/c2ccc(C(F)(F)F)cc2)cc1` [Compound 4d, (E)-1-(4-methoxyphenyl)-3-(4-(trifluoromethyl)phenyl)prop-2-en-1-one] was tested. Which fold induction at 10 µM did it give?
**A.** 3.5

**Q.** `COc1ccc(C(=O)/C=C/c2ccc(C(F)(F)F)cc2)c(OC)c1` [Compound 4e, (E)-1-(2,4-dimethoxyphenyl)-3-(4-(trifluoromethyl)phenyl)prop-2-en-1-one] was tested. Which fold induction at 10 µM did it give?
**A.** 5

**Q.** `COc1ccc(OC)c(C(=O)/C=C/c2ccc(C(F)(F)F)cc2)c1` [Compound 4g] was tested. Which fold induction at 10 µM did it give?
**A.** 4.1

**Q.** How did the fold induction at 10 µM turn out when `COc1ccc(C(=O)/C=C/c2ccc(C(F)(F)F)cc2)c(OC)c1OC` [Compound 4j] was run?
**A.** 4.1

**Q.** For `COc1cccc(OC)c1C(=O)/C=C/c1ccccc1[N+](=O)[O-]` [Compound 5f], which fold induction at 10 µM is on record?
**A.** 4.1

**Q.** Which fold induction at 10 µM does the source give for `COc1cc(OC)cc(C(=O)/C=C/c2ccccc2[N+](=O)[O-])c1` [Compound 5i] here?
**A.** 3.4

**Q.** For `C[S+]([O-])CCCCN=C=S` (stereo not drawn) [Sulforaphane, reference compound], which fold induction at 10 µM is on record?
**A.** 2.7

Same assay, conditions: Homo sapiens, BEAS-2B, 16 h, DMSO = 1 (Table 3), read-out: Relative Fold Change NQO1

**Q.** `COc1ccc(C(=O)/C=C/c2ccc(C(F)(F)F)cc2)cc1` [Compound 4d, (E)-1-(4-methoxyphenyl)-3-(4-(trifluoromethyl)phenyl)prop-2-en-1-one] was tested. Which fold induction at 10 µM did it give?
**A.** 4.6

**Q.** For `COc1ccc(C(=O)/C=C/c2ccc(C(F)(F)F)cc2)c(OC)c1` [Compound 4e, (E)-1-(2,4-dimethoxyphenyl)-3-(4-(trifluoromethyl)phenyl)prop-2-en-1-one], which fold induction at 10 µM is on record?
**A.** 4.8

**Q.** `COc1ccc(OC)c(C(=O)/C=C/c2ccc(C(F)(F)F)cc2)c1` [Compound 4g] was tested. Which fold induction at 10 µM did it give?
**A.** 4

**Q.** How did the fold induction at 10 µM turn out when `COc1ccc(C(=O)/C=C/c2ccc(C(F)(F)F)cc2)c(OC)c1OC` [Compound 4j] was run?
**A.** 3.7

**Q.** For `COc1cccc(OC)c1C(=O)/C=C/c1ccccc1[N+](=O)[O-]` [Compound 5f], which fold induction at 10 µM is on record?
**A.** 3.7

**Q.** Which fold induction at 10 µM does the source give for `COc1cc(OC)cc(C(=O)/C=C/c2ccccc2[N+](=O)[O-])c1` [Compound 5i] here?
**A.** 4.1

**Q.** Which fold induction at 10 µM does the source give for `C[S+]([O-])CCCCN=C=S` (stereo not drawn) [Sulforaphane, reference compound] here?
**A.** 3.6

What follows are compounds tested on Nrf2 (assay: Nrf2-regulated gene expression with or without N-acetyl-cysteine in Beas-2B cells). Settings: NAC 10 mM alone, 24 h.
Assay type: cell-based, human
Protocol: Cells were harvested 24 h after the treatment and the Nrf2-driven expression of NQO1, HO-1, and GCLM was quantified. β-actin was used for normalization. Data are representative of three independent experiments. Values shown are mean±SD of triplicate wells (P≦0.05);
The activation of Nrf2 by various electrophiles and compounds that are Michael acceptors is attributed to changes in ROS production and or redox environment and or direct cysteine modification in Keap1. Nguyen, T., et al., The Nrf2-antioxidant response element signaling pathway and its activation by oxidative stress. J. Biol. Chem. 2009, 284, 13291-13295; McMahon, M., et al., Keap1 perceives stress via three sensors for the endogenous signaling molecules nitric oxide, zinc, and alkenals. Proc. Natl. Acad. Sci. U.S.A. 2010, 107, 18838-18843. Whether 2b activates Nrf2 by generating ROS or redox changes also was examined.

**Q.** How did the “induction of Nrf2-regulated genes, NAC alone” value turn out when `CC(=O)N[C@@H](CS)C(=O)O` [NAC, N-acetyl-cysteine, reference compound] was run?
**A.** no induction of Nrf2-regulated genes

What follows are compounds tested on Beas-2B cells (assay: Cell viability / cytotoxicity (MTT assay) in Beas-2B cells). Settings: 24 h, DMSO = 100.
Assay type: cell-based, human
Protocol: Concurrent with the gene expression analysis, the cytotoxicity of the chalcone derivatives was determined using the MTT assay.
Mad. Chem. 2007, 15, 2952-2962. […] Four hours before the end of incubation, the medium was removed and 100 μL of MTT (5 mg/mL in serum free medium) was added to each well. The MTT was removed after 4 h, cells were washed with PBS, and 100 μL DMSO was added to each well to dissolve the water-insoluble MTT-formazan crystals. The absorbance was recorded at 570 nm in a plate reader (Molecular Devices, Sunnyvale, Calif.).

**Q.** Which “% Cell Viability” value does the source give for `COc1ccc(C(=O)/C=C/c2ccc(C(F)(F)F)cc2)cc1` [Compound 4d, (E)-1-(4-methoxyphenyl)-3-(4-(trifluoromethyl)phenyl)prop-2-en-1-one] here?
**A.** 104.1%

**Q.** For `COc1ccc(C(=O)/C=C/c2ccc(C(F)(F)F)cc2)c(OC)c1` [Compound 4e, (E)-1-(2,4-dimethoxyphenyl)-3-(4-(trifluoromethyl)phenyl)prop-2-en-1-one], which “% Cell Viability” value is on record?
**A.** 92.6%

**Q.** `COc1ccc(OC)c(C(=O)/C=C/c2ccc(C(F)(F)F)cc2)c1` [Compound 4g] was tested. Which “% Cell Viability” value did it give?
**A.** 91.6%

**Q.** For `COc1ccc(C(=O)/C=C/c2ccc(C(F)(F)F)cc2)c(OC)c1OC` [Compound 4j], which “% Cell Viability” value is on record?
**A.** 100.1%

**Q.** How did the “% Cell Viability” value turn out when `COc1cccc(OC)c1C(=O)/C=C/c1ccccc1[N+](=O)[O-]` [Compound 5f] was run?
**A.** 75.8%

**Q.** For `COc1cc(OC)cc(C(=O)/C=C/c2ccccc2[N+](=O)[O-])c1` [Compound 5i], which “% Cell Viability” value is on record?
**A.** 90.9%

**Q.** `C[S+]([O-])CCCCN=C=S` (stereo not drawn) [Sulforaphane, reference compound] was tested. Which “% Cell Viability” value did it give?
**A.** 97.3%
